# Laboratory results reported in patent US10988477B2 (Merck Patent GmbH, priority 2018, dated 2021).
# pIC50, pKi: −log10 of the molar value. Like-named read-outs stand apart in the source and are kept apart here.
# Legend:
# GCN2 kinase = GCN2 kinase (Homo sapiens, UniProt Q9P2K8); experiment: GCN2 enzyme inhibition assay (Transcreener ADP2 fluorescence polarization); format: biochemical; conditions: 280 μM ATP
# Summary of the method: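 Run at 25 °C in 25 mM Tris-HCl pH 7.5, 50 mM NaCl, 10 mM MgCl2, 1 mM DTT with 4 nM GCN2, 280 μM ATP and 200 μM (RS)7 peptide; compound (0–8 μM final) preincubated 10 min, reaction 1 h. ADP read by antibody/tracer FP; IC50 and Ki(app) from tight-binding fit.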
# [1] = molecular target: intracellular GCN2 (phosphorylation of the GCN2 substrate eIF2α) (Homo sapiens, UniProt Q9P2K8); experiment: GCN2 cellular inhibition assay (AlphaScreen SureFire P-eIF2α Ser51, borrelidin-treated U2OS cells); format: cell-based
# Summary of the method: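 U2OS, overnight attach; cpd 4-fold serial dil. from 40 μM final; borrelidin 10 μM, 1 h 37 °C/5% CO2; lyse; AlphaScreen P-eIF2α Ser51 (acceptor 2 h, donor overnight, RT, dark); % inhib. vs borrelidin-only.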
# [2] = compounds of Formula II, 4 nM GCN2 kinase
# [3] = compounds of Formula II, biomarker assay, phosphorylated eIF2α Ser51 in borrelidin-treated U2OS cells
# [4] = Enzyme activity for compounds of Formula IV, Ki(app), 25° C.
# [5] = compounds of Formula IV, biomarker assay, phosphorylated eIF2α Ser51 in borrelidin-treated U2OS cells
# Sequence of intracellular GCN2 (phosphorylation of the GCN2 substrate eIF2α) (Q9P2K8 whole entry): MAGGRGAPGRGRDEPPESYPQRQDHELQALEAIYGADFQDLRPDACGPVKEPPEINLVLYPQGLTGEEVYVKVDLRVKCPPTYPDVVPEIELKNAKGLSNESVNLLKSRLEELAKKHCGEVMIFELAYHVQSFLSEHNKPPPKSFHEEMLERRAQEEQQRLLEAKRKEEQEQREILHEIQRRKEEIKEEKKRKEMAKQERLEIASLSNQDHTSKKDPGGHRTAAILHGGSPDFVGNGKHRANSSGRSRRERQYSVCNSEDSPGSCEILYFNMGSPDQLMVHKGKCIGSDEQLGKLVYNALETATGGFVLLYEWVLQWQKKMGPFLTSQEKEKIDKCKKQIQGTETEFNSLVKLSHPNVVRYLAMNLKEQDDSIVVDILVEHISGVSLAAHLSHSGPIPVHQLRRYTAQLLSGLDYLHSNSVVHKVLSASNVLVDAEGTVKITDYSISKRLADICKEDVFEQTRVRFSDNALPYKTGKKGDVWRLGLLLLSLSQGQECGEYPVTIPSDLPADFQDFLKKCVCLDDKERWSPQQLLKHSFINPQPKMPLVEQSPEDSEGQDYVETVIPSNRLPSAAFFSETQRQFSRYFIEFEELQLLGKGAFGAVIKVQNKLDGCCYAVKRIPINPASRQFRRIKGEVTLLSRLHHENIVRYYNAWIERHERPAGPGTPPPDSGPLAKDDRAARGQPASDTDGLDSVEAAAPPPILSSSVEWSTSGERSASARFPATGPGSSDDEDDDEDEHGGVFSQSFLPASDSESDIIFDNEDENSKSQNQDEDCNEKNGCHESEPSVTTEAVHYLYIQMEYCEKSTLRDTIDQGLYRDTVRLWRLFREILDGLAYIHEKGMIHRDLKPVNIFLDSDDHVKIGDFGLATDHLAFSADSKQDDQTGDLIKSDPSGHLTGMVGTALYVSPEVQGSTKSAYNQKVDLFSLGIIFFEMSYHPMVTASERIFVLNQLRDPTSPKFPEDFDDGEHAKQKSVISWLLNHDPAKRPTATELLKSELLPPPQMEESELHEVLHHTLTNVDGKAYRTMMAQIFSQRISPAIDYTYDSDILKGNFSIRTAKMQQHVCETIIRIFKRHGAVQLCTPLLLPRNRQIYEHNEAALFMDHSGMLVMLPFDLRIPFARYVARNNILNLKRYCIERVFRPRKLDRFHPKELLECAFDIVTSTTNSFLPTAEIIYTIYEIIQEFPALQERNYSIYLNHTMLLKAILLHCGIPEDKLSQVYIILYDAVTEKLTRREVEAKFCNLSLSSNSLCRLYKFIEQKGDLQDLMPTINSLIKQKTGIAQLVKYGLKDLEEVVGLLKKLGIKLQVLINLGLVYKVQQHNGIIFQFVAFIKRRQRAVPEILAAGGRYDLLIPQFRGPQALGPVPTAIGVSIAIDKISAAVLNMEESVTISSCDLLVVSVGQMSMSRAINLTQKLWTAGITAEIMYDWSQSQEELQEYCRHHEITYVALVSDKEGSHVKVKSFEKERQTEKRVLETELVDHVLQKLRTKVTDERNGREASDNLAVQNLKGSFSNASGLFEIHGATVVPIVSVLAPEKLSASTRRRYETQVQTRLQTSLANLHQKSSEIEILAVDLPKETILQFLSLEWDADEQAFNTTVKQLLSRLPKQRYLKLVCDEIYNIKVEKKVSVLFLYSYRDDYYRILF
# Sequence of GCN2 kinase (Q9P2K8 whole entry): as above
SMILES,pKi (GCN2 kinase; [2]),"pIC50 [1, 3]",pKi (GCN2 kinase; [4]),"pIC50 [1, 5]",further results
"CC1CN(c2cc(-c3cnc4ccc(C(F)F)nn34)ncn2)CC(CNS(C)(=O)=O)C1=O (stereo not shown) [II-526, N-((1-(6-(6-(Difluoromethyl)imidazo[1,2-b]pyridazin-3-yl)pyrimidin-4-yl)-5-methyl-4-oxopiperidin-3-yl)methyl)methanesulfonamide]",> 8.00,> 6.30,,,
"CC1CN(c2ccnc(-c3cnc4cnc(C#N)cn34)n2)CC(c2cn[nH]c2)O1 (stereo not shown) [IV-194, 3-(4-(2-Methyl-6-(1H-pyrazol-4-yl)morpholino)pyrimidin-2-yl)imidazo[1,2-a]pyrazine-6-carbonitrile]",,,> 8.00,> 6.30,
"Cc1n[nH]cc1[C@H]1C[C@H](O)CN(c2ccnc(-c3cnc4cnc(C(F)(F)F)cn34)n2)C1 [IV-774, (3S,5R)-5-(3-methyl-1H-pyrazol-4-yl)-1-(2-(6-(trifluoromethyl)imidazo[1,2-a]pyrazin-3-yl)pyrimidin-4-yl)piperidin-3-ol]",,,,< 5.30,"pIC50 (GCN2 kinase; compounds of Formula IV, 4 nM GCN2 kinase): 6.00 to 8.00"
"FC(F)(F)c1cn2c(-c3nccc(N4CCC(Cc5cn[nH]c5)C4)n3)cnc2cn1 (stereo not shown) [IV-635, 3-(4-(3-((1H-Pyrazol-4-yl)methyl)pyrrolidin-1-yl)pyrimidin-2-yl)-6-(trifluoromethyl)imidazo[1,2-a]pyrazine]",,,7.00 to 8.00,5.30 to 6.30,
"OCC12CC1CN(c1cc(-c3cnc4ccc(C(F)F)nn34)ncn1)C2 (stereo not shown) [II-438, (3-(6-(6-(Difluoromethyl)imidazo[1,2-b]pyridazin-3-yl)pyrimidin-4-yl)-3-azabicyclo[3.1.0]hexan-1-yl)methanol]",6.00 to 8.00,5.30 to 6.30,,,
"CC1CN(c2ccnc(-c3cnc4cnc(Br)cn34)n2)CC(c2cn[nH]c2)N1 (single isomer, unassigned) [IV-364, 6-Bromo-3-(4-(3-methyl-5-(1H-pyrazol-4-yl)piperazin-1-yl)pyrimidin-2-yl)imidazo[1,2-a]pyrazine]",,,7.00 to 8.00,5.30 to 6.30,
"CC(NS(C)(=O)=O)C1CN(c2cc(-c3cnc4ccc(C(F)F)nn34)ccn2)CCO1 (stereo not shown) [II-106, N-(1-(4-(4-(6-(Difluoromethyl)imidazo[1,2-b]pyridazin-3-yl)pyridin-2-yl)morpholin-2-yl)ethyl)methanesulfonamide]",> 8.00,5.30 to 6.30,,,
"CS(C)(=O)=NC1CCCN(c2ccnc(-c3cnc4cnc(C(F)F)cn34)n2)C1 (stereo not shown) [IV-141, ((1-(2-(6-(Difluoromethyl)imidazo[1,2-a]pyrazin-3-yl)pyrimidin-4-yl)piperidin-3-yl)imino)dimethyl-λ^6-sulfanone]",,,6.00 to 7.00,< 5.30,
"CC(=O)N1CCN(c2ccnc(-c3cnc4cnc(C(=O)O)cn34)n2)CC1 [IV-30, 3-(4-(4-Acetylpiperazin-1-yl)pyrimidin-2-yl)imidazo[1,2-a]pyrazine-6-carboxylic acid]",,,6.00 to 7.00,< 5.30,
"CS(=O)(=O)N1CCCC(c2cc(-c3cnc4ccc(C(F)F)nn34)ncn2)CC1 (stereo not shown) [II-14, 6-(Difluoromethyl)-3-(6-(1-(methylsulfonyl)azepan-4-yl)pyrimidin-4-yl)imidazo[1,2-b]pyridazine]",6.00 to 8.00,< 5.30,,,
"CS(=O)(=O)NC[C@@H]1CN(c2cc(-c3cnc4ccc(C(F)F)nn34)ccn2)CCO1 [II-121, N-[[(2S)-4-[4-[6-(Difluoromethyl)imidazo[1,2-b]pyridazin-3-yl]-2-pyridyl]morpholin-2-yl]methyl]methanesulfonamide]",> 8.00,> 6.30,,,
"O=C1CC2(CCN(c3cc(-c4cnc5ccc(C(F)F)nn45)ncn3)CC2)N1 [II-52, 7-(6-(6-(Difluoromethyl)imidazo[1,2-b]pyridazin-3-yl)pyrimidin-4-yl)-1,7-diazaspiro[3.5]nonan-2-one]",6.00 to 8.00,< 5.30,,,
"NC(=O)c1cn2c(-c3cccc(N4CCN5C(=O)CCCC5C4)n3)cnc2cn1 (stereo not shown) [IV-210, 3-(6-(6-Oxooctahydro-2H-pyrido[1,2-a]pyrazin-2-yl)pyridin-2-yl)imidazo[1,2-a]pyrazine-6-carboxamide]",,,> 8.00,5.30 to 6.30,
"FC(F)c1ccc2ncc(-c3ccnc(N4CCn5cnnc5C4)c3)n2n1 [II-174, 7-(4-(6-(Difluoromethyl)imidazo[1,2-b]pyridazin-3-yl)pyridin-2-yl)-5,6,7,8-tetrahydro-[1,2,4]triazolo[4,3-a]pyrazine]",6.00 to 8.00,< 5.30,,,
"CS(=O)(=O)NCC1CC(O)CN(c2cc(-c3cnc4ccc(C(F)F)nn34)ccn2)C1 (stereo not shown) [II-39, N-((1-(4-(6-(Difluoromethyl)imidazo[1,2-b]pyridazin-3-yl)pyridin-2-yl)-5-hydroxypiperidin-3-yl)methyl)methanesulfonamide]",6.00 to 8.00,5.30 to 6.30,,,
"CC1CN(c2cc(N=S(C)(C)=O)nc(-c3cnc4cnc(C(F)(F)F)cn34)n2)C(C)C(c2cn[nH]c2)N1 (stereo not shown) [IV-648, ((6-(2,5-Dimethyl-3-(1H-pyrazol-4-yl)piperazin-1-yl)-2-(6-(trifluoromethyl)imidazo[1,2-a]pyrazin-3-yl)pyrimidin-4-yl)imino)dimethyl-λ^6-sulfanone]",,,> 8.00,5.30 to 6.30,
"CS(=O)(=O)NCC1CC(N2CC(F)C2)CN(c2cc(-c3cnc4ccc(C(F)F)nn34)ncn2)C1 (stereo not shown) [II-429, N-((1-(6-(6-(Difluoromethyl)imidazo[1,2-b]pyridazin-3-yl)pyrimidin-4-yl)-5-(3-fluoroazetidin-1-yl)piperidin-3-yl)methyl)methanesulfonamide]",6.00 to 8.00,< 5.30,,,
"CC1CN(c2cncc(-c3cnc4cnc(C(F)(F)F)cn34)n2)C(C)C(c2cn[nH]c2)N1 (single isomer, unassigned) [IV-650, 3-(6-(2,5-Dimethyl-3-(1H-pyrazol-4-yl)piperazin-1-yl)pyrazin-2-yl)-6-(trifluoromethyl)imidazo[1,2-a]pyrazine]",,,> 8.00,5.30 to 6.30,
"CS(=O)(=O)NC[C@@H]1CN(c2cc(-c3cnn4ccc(C(F)F)nc34)ccn2)CCO1 [III-6, N-[[(2S)-4-[4-[5-(Difluoromethyl)pyrazolo[1,5-a]pyrimidin-3-yl]-2-pyridyl]morpholin-2-yl]methyl]methanesulfonamide]",,,,,"pKi (GCN2 kinase; compounds of Formula III, 4 nM GCN2 kinase): > 8.00; pIC50 ([1]; compounds of Formula III, U2OS cells, 10 μM borrelidin, 1 h, read-out: GCN2 Biomarker (IC50)): 5.30 to 6.30"
"C[C@@H]1CCC[C@H](C)N1c1ccnc(-c2cnc3cnc(C(F)F)cn23)n1 [IV-122, 6-(Difluoromethyl)-3-(4-((2S,6R)-2,6-dimethylpiperidin-1-yl)pyrimidin-2-yl)imidazo[1,2-a]pyrazine]",,,6.00 to 7.00,< 5.30,
"CS(=O)(=O)NCC1CN(c2cc(-c3cnc4ccc(C(F)F)nn34)ncn2)CC1O (stereo not shown) [II-140, N-((1-(6-(6-(Difluoromethyl)imidazo[1,2-b]pyridazin-3-yl)pyrimidin-4-yl)-4-hydroxypyrrolidin-3-yl)methyl)methanesulfonamide]",6.00 to 8.00,< 5.30,,,
"OC[C@@H]1CCCN(c2cc(-c3cnc4ccc(C(F)F)nn34)ncn2)C1 [II-520, (R)-(1-(6-(6-(Difluoromethyl)imidazo[1,2-b]pyridazin-3-yl)pyrimidin-4-yl)piperidin-3-yl)methanol]",6.00 to 8.00,5.30 to 6.30,,,
"CC1CCN(c2ccnc(-c3cnc4cnc(C(F)F)cn34)n2)CC1C(N)=O (stereo not shown) [IV-108, 1-(2-(6-(Difluoromethyl)imidazo[1,2-a]pyrazin-3-yl)pyrimidin-4-yl)-4-methylpiperidine-3-carboxamide]",,,7.00 to 8.00,5.30 to 6.30,
"CS(=O)(=O)Nc1cccc(-c2ccnc(-c3cnc4cnc(C(F)F)cn34)n2)c1 [IV-147, N-(3-(2-(6-(Difluoromethyl)imidazo[1,2-a]pyrazin-3-yl)pyrimidin-4-yl)phenyl)methanesulfonamide]",,,6.00 to 7.00,< 5.30,
"CS(=O)(=O)NCC1CN(c2cc(-c3cnc4ccc(C(F)F)nn34)ncn2)CC2(CC2)O1 (stereo not shown) [II-384, N-((7-(6-(6-(Difluoromethyl)imidazo[1,2-b]pyridazin-3-yl)pyrimidin-4-yl)-4-oxa-7-azaspiro[2.5]octan-5-yl)methyl)methanesulfonamide]",> 8.00,> 6.30,,,
"OC[C@H]1CN(c2cc(-c3cnc4ccc(C(F)F)nn34)ncn2)C[C@@H](C(F)(F)F)O1 [II-298, ((2R,6S)-4-(6-(6-(Difluoromethyl)imidazo[1,2-b]pyridazin-3-yl)pyrimidin-4-yl)-6-(trifluoromethyl)morpholin-2-yl)methanol]",6.00 to 8.00,5.30 to 6.30,,,
"CS(C)(=O)=NC1CCCN(c2cc(-c3cnc4ccc(C(F)F)nn34)ncn2)C1 (stereo not shown) [II-408, ((1-(6-(6-(Difluoromethyl)imidazo[1,2-b]pyridazin-3-yl)pyrimidin-4-yl)piperidin-3-yl)imino)dimethyl-λ^6-sulfanone]",6.00 to 8.00,5.30 to 6.30,,,
"CC1C(CNS(C)(=O)=O)OCCN1c1cc(-c2cnc3ccc(C(F)F)nn23)ncn1 (stereo not shown) [II-345, N-((4-(6-(6-(Difluoromethyl)imidazo[1,2-b]pyridazin-3-yl)pyrimidin-4-yl)-3-methylmorpholin-2-yl)methyl)methanesulfonamide]",> 8.00,> 6.30,,,
"FC(F)(F)c1cn2c(-c3nccc(N4CCC(c5cn[nH]c5)C4)n3)cnc2s1 (stereo not shown) [Compound V-7, 5-[4-[3-(1H-Pyrazol-4-yl)pyrrolidin-1-yl]pyrimidin-2-yl]-2-(trifluoromethyl)imidazo[2,1-b]thiazole]",,,,,"pKi (GCN2 kinase; compounds of Formula V, 4 nM GCN2 kinase): 7.00 to 8.00; pIC50 ([1]; compounds of Formula V, U2OS cells, 10 μM borrelidin, 1 h, read-out: GCN2 Biomarker (IC50)): 5.30 to 6.30"
